Reference: patent US7166296B2, “Pharmaceutical formulations and ligands for use therein; mimetics for UEA-1” (Sarlan, Ltd., priority 2001, dated 2007)
In brackets after ≈: the same amount, converted by molar mass. Structures can show the parent of a compound that is named as a salt. Non-standard residues stand in square brackets, D forms with d. Residues, ends and D or L forms follow the SMILES beside them. *: point of attachment. Galloyl = O=C(c1cc(O)c(O)c(O)c1)*; Orn = NCCC[CH](N)C(=O)O

Assays:
[1] = test system: UEA-1 binding sites on Caco-2 cell membrane preparations; experiment: Single tier competition assay: inhibition of biotinylated UEA-1 binding, compound and biotinylated UEA-1 incubated together; parameters: species or system human; details: for Avg % Inhibtion: Single Tier Assay, library MSI 26
Method: (§1) The epithelial cell binding ability of compounds and mixtures obtained from synthetic combinatorial libraries was determined by competition assays. These assays were set up to measure the inhibition of binding of biotinylated UEA-1 to membrane preparations of the epithelial cell line Caco-2 (colon carcinoma cells-2), by compounds and mixtures of the combinatorial libraries. This cell line is a conventional model for epithelial cells.
(§2) Two competition inhibition assays were used in this case, namely single tier and two tier assays. These assays differed from each other in that in the single tier assay, the mixtures/compounds and the biotinylated UEA-1 were incubated together with the Caco-2 cell membrane preparations, while in case of the two-tier assay, the mixture/compounds were allowed to incubate alone with the cell membranes in the absence of biotinylated UEA-1, which was added in the next step. Addition of the extra step in the two-tier assay was to ensure that the compounds inhibiting the binding of biotinylated UEA-1 to the Caco-2 cell membranes were doing so by themselves binding to surface receptors on the Caco-2 cells and not to the biotinylated UEA-1. Each assay will be described in detail.
(§3) • 1. Confluent Caco-2 cell monolayers (grown in 75 cm^2 flasks for up to 1 week at 37° C. and 5% CO2) were washed twice in Dulbecco's PBS (DPBS). • 2. Cell monolayers were treated with 10 mM EDTA-DPBS for 5–10 min at 37° C. and cells were harvested by centrifugation at 1000 rpm for 5 min. • 3. Cells were washed 3 times in DPBS. • 4. […] The cells were homogenised for 30 sec. • 6. The homogenates were centrifuged in hard walled tubes at 40,000 rpm for 45 min at 4° C. • 7. […] The supernatant was removed and stored on ice. The procedure was repeated adding the second supernatant to the first. • 8. The protein concentration was determined using e.g. a Bio-Rad protein assay. • 9. All fractions were stored at −80° C. prior to use. Single Tier Assays: • 1. 96-well microtiter plates were coated with membrane preparations of Caco-2 cells either by allowing them to incubate on the plates for 2½ hours at room temperature or by incubating them overnight at 4° C. 100 μl of 10 μg/ml (in 0.05 M carbonate buffer, pH 9.6) of membrane preparation was added to each well. • 2. The plates were flicked out, patted dry and blocked with bovine serum albumin (BSA)/DPBS (200 μl/well) for 1 to 4 hours at room temperature after which they were washed three times in water. • 3. […] Control wells were also set up in which the Caco-2 cell membrane preparations were incubated with unconjugated UEA-1. […] Following overnight incubation the plates were washed thoroughly (3–6 times). The plates were flicked out, patted dry and biotinylated UEA-1 was detected with commercial Streptavidin conjugated to horseradish peroxidase (HRP) (CalBiochem). […] The plates were left to incubate for an hour at room temperature. • 6. The plates were then washed 3–6 times and the biotin-streptavidin binding was detected by adding an HRP substrate OPD (orthophenyl diamine) to each well. 100 μl/well of this substrate at a final concentration of 1.6 mg/ml was added to each well. Before adding to the wells, this substrate was activated by addition of 50 μl of 3% H2O2 per plate and the reaction was allowed to develop in the dark. • 7. The reaction was stopped by adding 50 μl of 4 N H2SO4 to each well after approximately 5–10 minutes or when sufficient colour had developed. The OD490 (absorbance at 490 nm) of each well was measured using a conventional 96 well plate reading spectrophotometer. Two Tier Assays: • 1. 96 well plates were coated with Caco-2 cell membrane preparations in the same manner as described in the single tier assay. • 2. […] 100 μl at these final concentrations were added to each well. • 4. The plates were then left to incubate overnight, a step that would allow the mixtures and compounds to interact with the Caco-2 cell membranes without the presence of the competitor (biotinylated UEA-1) itself. • 5. […]

[2] = test system: UEA-1 binding sites on Caco-2 cell membrane preparations; experiment: Two tier competition assay: compound incubated alone with membranes, biotinylated UEA-1 added in next step; parameters: species or system human; details: for Avg % Inhibition: Two Tier Assay, library MSI 26
Method: as §1, §2, §3

[3] = library MSI 27, read-out: Single Tier Assay IC50
[4] = library MSI 27, read-out: Two Tier Assay IC50
[5] = Table 8, galloyl constructs, read-out: IC 50 (uM) 1st tier (converted)
[6] = Table 8, galloyl constructs, read-out: IC 50 (uM) 2nd tier

Structure (SMILES) | Single Tier Assay IC50 ([1]; library MSI 27) | IC50 [1, 3] | Two Tier Assay IC50 ([2]; library MSI 27) | IC50 [2, 4] | IC 50 (ug/ml) 1st tier ([1]; Table 8, galloyl constructs) | IC50 [1, 5] | IC 50 (ug/ml) 2nd tier ([2]; Table 8, galloyl constructs) | IC50 [2, 6] | also measured
COc1cc(C(=O)NCCCCC(NC(=O)C(CCCCNC(=O)c2cc(OC)c(O)c(OC)c2)NC(=O)C(CCCCNC(=O)c2cc(OC)c(O)c(OC)c2)NC(=O)c2cc(OC)c(O)c(OC)c2)C(N)=O)cc(OC)c1O (stereo not shown) [Cpd 41] | 89.77 µg/mL | 80 µM | 83.26 µg/mL | 74.2 µM | – | – | – | – | –
CCOC(=O)Oc1c(OC)cc(C(=O)NCCCCC(NC(=O)C(CCCCNC(=O)c2cc(OC)c(OC(=O)OCC)c(OC)c2)NC(=O)C(CCCCNC(=O)c2cc(OC)c(OC(=O)OCC)c(OC)c2)NC(C)=O)C(N)=O)cc1OC (stereo not shown) [Cpd 53] | 90.15 µg/mL | 75.1 µM | 114.80 µg/mL | 95.7 µM | – | – | – | – | –
COc1cc(C(=O)OCCCN2CCCN(CCCOC(=O)c3cc(OC)c(OC)c(OC)c3)CC2)cc(OC)c1OC [Dilazep dihydrochloride, reference compound] | – | – | – | – | – | – | – | – | Avg % Inhibtion ([1]; 62.5 μg/ml): 14.7%; Avg % Inhibtion ([1]; 250 μg/ml): 10.4%; Avg % Inhibition ([2]; 62.5 μg/ml): −25%; Avg % Inhibition ([2]; 250 μg/ml): −25%
COc1cc(C(=O)NCCCCC(NC(C)=O)C(N)=O)cc(OC)c1O (stereo not shown) [Cpd 9] | 125.00 µg/mL | 340 µM | 101.20 µg/mL | 275 µM | – | – | – | – | –
CC(=O)NC(CCCCNC(=O)c1cc(O)cc(O)c1)C(=O)NC(CCCCNC(=O)c1cc(O)cc(O)c1)C(=O)NC(CCCCNC(=O)c1cc(O)cc(O)c1)C(N)=O (stereo not shown) [Cpd 56] | 125.00 µg/mL | 147 µM | 125.00 µg/mL | 147 µM | – | – | – | – | –
NC(=O)C(Cc1ccc(NC(=O)c2cc(O)c(O)c(O)c2)cc1)NC(=O)C(Cc1ccc(NC(=O)c2cc(O)c(O)c(O)c2)cc1)NC(=O)c1cc(O)c(O)c(O)c1 (stereo not shown) [MSI 34 #12] | – | – | – | – | 6 µg/mL (≈ 7.52 µM) | 8 µM | 4 µg/mL (≈ 5.01 µM) | 5 µM | –
COc1ccc(C(=O)NCCCCC(NC(=O)c2ccc(OC)c(OC)c2)C(=O)NCCCCC(NC(=O)C(CCCCNC(=O)c2ccc(OC)c(OC)c2)NC(=O)c2ccc(OC)c(OC)c2)C(N)=O)cc1OC (stereo not shown) [Cpd 18] | 111.30 µg/mL | 105 µM | 90.21 µg/mL | 85.3 µM | – | – | – | – | –
CC(=O)NC(CCCNC(=O)c1cc(O)c(O)c(O)c1)C(=O)NC(CCCNC(=O)c1cc(O)c(O)c(O)c1)C(=O)NC(CCCNC(=O)c1cc(O)c(O)c(O)c1)C(=O)NC(CCCNC(=O)c1cc(O)c(O)c(O)c1)C(N)=O (stereo not shown) [MSI 34 #23] (Ac-[Orn](Galloyl)[Orn](Galloyl)[Orn](Galloyl)[Orn](Galloyl)-NH2; configuration not given here) | – | – | – | – | 6 µg/mL (≈ 5.34 µM) | 5 µM | 1 µg/mL (≈ 0.89 µM) | 1 µM | –
CC(=O)NC(CCCNC(=O)c1cc(O)c(O)c(O)c1)C(=O)NC(CCCNC(=O)c1cc(O)c(O)c(O)c1)C(=O)NC(CCCNC(=O)c1cc(O)c(O)c(O)c1)C(N)=O (stereo not shown) [MSI 34 #15] | – | – | – | – | 8 µg/mL (≈ 9.33 µM) | 9 µM | 2 µg/mL (≈ 2.33 µM) | 2 µM | –
CC(=O)N[C@H](CCCCNC(=O)c1cc(O)c(O)c(O)c1)C(=O)N[C@H](CCCCNC(=O)c1cc(O)c(O)c(O)c1)C(=O)N[C@H](CCCCNC(=O)c1cc(O)c(O)c(O)c1)C(=O)N[C@H](CCCCNC(=O)c1cc(O)c(O)c(O)c1)C(=O)N[C@H](CCCCNC(=O)c1cc(O)c(O)c(O)c1)C(N)=O [MSI 30 #8] (Ac-[dK](Galloyl)[dK](Galloyl)[dK](Galloyl)[dK](Galloyl)[dK](Galloyl)-NH2) | – | – | – | – | 70 µg/mL (≈ 47.9 µM) | 48 µM | 15 µg/mL (≈ 10.3 µM) | 10 µM | –
NC(=O)C(CNC(=O)C(CNC(=O)c1cc(O)c(O)c(O)c1)NC(=O)c1cc(O)c(O)c(O)c1)NC(=O)CCCCCNC(=O)C(CNC(=O)c1cc(O)c(O)c(O)c1)NC(=O)c1cc(O)c(O)c(O)c1 (stereo not shown) [MSI 39 #4] | – | – | – | – | 6 µg/mL (≈ 6.02 µM) | 5 µM | 0.8 µg/mL (≈ 0.802 µM) | 0.7 µM | –
COc1cc(C(=O)NCCCCC(NC(=O)C(CCCCNC(=O)c2cc(OC)c(O)c(OC)c2)NC(C)=O)C(N)=O)cc(OC)c1O (stereo not shown) [Cpd 33] | 97.85 µg/mL | 145 µM | 72.17 µg/mL | 107 µM | – | – | – | – | –
CC(=O)NC(Cc1ccc(NC(=O)c2cc(O)c(O)c(O)c2)cc1)C(=O)NC(Cc1ccc(NC(=O)c2cc(O)c(O)c(O)c2)cc1)C(=O)NC(Cc1ccc(NC(=O)c2cc(O)c(O)c(O)c2)cc1)C(N)=O (stereo not shown) [MSI 34 #16] | – | – | – | – | 3 µg/mL (≈ 2.99 µM) | 3 µM | 6 µg/mL (≈ 5.99 µM) | 6 µM | –
NC(=O)C(CCNC(=O)c1cc(O)c(O)c(O)c1)NC(=O)C(CCNC(=O)c1cc(O)c(O)c(O)c1)NC(=O)C(CCNC(=O)c1cc(O)c(O)c(O)c1)NC(=O)c1cc(O)c(O)c(O)c1 (stereo not shown) [MSI 34 #18] | – | – | – | – | 3 µg/mL (≈ 3.24 µM) | 3 µM | 0.9 µg/mL (≈ 0.972 µM) | 1 µM | –
O=C(O)c1cc(O)cc(O)c1 [3,5-dihydroxybenzoic Acid, reference compound] | – | – | – | – | – | – | – | – | Avg % Inhibtion ([1]; 62.5 μg/ml): 0%; Avg % Inhibtion ([1]; 250 μg/ml): 1.1%; Avg % Inhibition ([2]; 62.5 μg/ml): −5%; Avg % Inhibition ([2]; 250 μg/ml): −7%
CCCCCCCCCCCCOC(=O)c1cc(O)c(O)c(O)c1 [Lauryl gallate, reference compound] | – | – | – | – | – | – | – | – | Avg % Inhibtion ([1]; 62.5 μg/ml): 39.1%; Avg % Inhibtion ([1]; 250 μg/ml): 22.5%; Avg % Inhibition ([2]; 62.5 μg/ml): 20.4%; Avg % Inhibition ([2]; 250 μg/ml): 47.9%
CC(=O)NC(CCNC(=O)c1cc(O)c(O)c(O)c1)C(=O)NC(CCNC(=O)c1cc(O)c(O)c(O)c1)C(=O)NC(CCNC(=O)c1cc(O)c(O)c(O)c1)C(N)=O (stereo not shown) [MSI 34 #14] | – | – | – | – | 2 µg/mL (≈ 2.45 µM) | 2 µM | 1 µg/mL (≈ 1.23 µM) | 1 µM | –
CC(=O)NC(CCCCNC(=O)c1ccc(O)cc1)C(=O)NC(CCCCNC(=O)c1ccc(O)cc1)C(=O)NC(CCCCNC(=O)c1ccc(O)cc1)C(N)=O (stereo not shown) [Cpd 55] | – | 311 µM | – | 311 µM | – | – | – | – | –
